Structures are written as SMILES. Where two headings read alike, the source gives them in different places. Starred links: 1 amine or outer side, 2 acyl side, 3 side chain; linkers in the order of their positions; H or OH if unused. Positions of bridges follow the written chain, without caps; N, C: chain ends. Non-standard residues stand in square brackets, D forms with d. Residues, ends and D or L forms follow the SMILES beside them. TATA = O=C(CC[*:1])N1CN(C(=O)CC[*:2])CN(C(=O)CC[*:3])C1; Phe(4-F) = N[C@@H](Cc1ccc(F)cc1)C(=O)O; β3hR = N=C(N)NCCC[C@H](N)CC(=O)O

The target in this test is T1, recombinant human FXIIa (Homo sapiens, UniProt P00748).
T1 construct: made in house; host or cells: CHO cells
T1 sequence (P00748 373-615 limits assumed): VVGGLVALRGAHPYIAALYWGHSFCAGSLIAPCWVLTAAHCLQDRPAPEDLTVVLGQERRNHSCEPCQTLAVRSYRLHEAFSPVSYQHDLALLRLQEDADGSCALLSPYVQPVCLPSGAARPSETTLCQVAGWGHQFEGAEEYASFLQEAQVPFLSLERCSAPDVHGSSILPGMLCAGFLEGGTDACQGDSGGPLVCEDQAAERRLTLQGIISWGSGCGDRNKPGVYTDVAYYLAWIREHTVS
T1 sequence (P00748 20-372 limits assumed): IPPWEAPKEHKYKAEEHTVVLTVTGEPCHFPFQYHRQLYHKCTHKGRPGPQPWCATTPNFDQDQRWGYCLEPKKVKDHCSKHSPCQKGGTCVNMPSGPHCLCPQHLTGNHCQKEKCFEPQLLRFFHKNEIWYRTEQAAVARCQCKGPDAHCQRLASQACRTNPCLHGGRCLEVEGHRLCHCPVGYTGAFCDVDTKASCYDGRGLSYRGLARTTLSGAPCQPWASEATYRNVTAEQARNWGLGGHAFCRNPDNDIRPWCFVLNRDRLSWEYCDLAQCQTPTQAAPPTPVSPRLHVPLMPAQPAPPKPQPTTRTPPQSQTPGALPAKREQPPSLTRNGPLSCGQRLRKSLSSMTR
As to the kind of experiment: Inhibition of recombinant FXIIa (rFXIIa). It counts as biochemical. Conditions: for remaining activity at 0.001 µM: peptide 1 nM; for remaining activity at 0.002 µM: peptide 2 nM. From the text:
The protein sequences for human, rabbit and pig factor XII were taken from the following database entries: human FXII: UniProtKB - P00748; rabbit FXII: NCBI RefSeq - XP_008253687.1; pig FXII: UniProtKB - O97507. The sequences are shown in the Supplementary Methods. DNA encoding the full-length proteins were ordered from Eurofins Genomics. The codons in these sequences were optimized for mammalian expression using the codon optimization tool from Integrated DNA Technologies (IDT). In addition to the FXII gene, the ordered DNA sequences encode a C-terminal GSGS-linker, a His6-tag and a stop codon, and they are flanked by NheI (GCTAGC) and a HindIII (AAGCTT) restriction sites. The entire DNA sequences are provided in the supporting materials. The DNA sequences were cloned into the pEXPR-IBA42 vector downstream of a BM40 signal sequence for secreted expression in mammalian cells. The ligated vector was transformed into DH5 alpha electrocompetent E. coli cells. Plasmid DNA from single clones was sequenced by Sanger sequencing.
1.5 mg plasmid DNA was transfected into 500 ml CHO cells (Thermo Fisher Scientific) in cell suspension culture using polyethylenimine (PEI). Cells were incubated for seven days at 37 °C, 5% CO2 under shaking conditions. The cells were removed by centrifugation and the secreted protein was purified from the supernatant using a nickel-charged immobilized metal affinity chromatography (IMAC) column (5 ml HisTrap FF Crude, GE Healthcare). The column was equilibrated with buffer containing 15 mM imidazole, 100 mM NaCl, 20 mM Tris-HCl, pH 7.4. The pH of the cell culture supernatant was adjusted to 8.0 using NaOH. The supernatant was run through the column at a flow of 5 ml per min. The column was washed with 20 column volumes of equilibration buffer at a flow of 5 ml per min. The protein was eluted with 500 mM imidazole, 100 mM NaCl, 20 mM Tris-HCl, pH 7.4 at a flow of 5 ml per min. The buffer was subsequently exchanged to 100 mM NaCl, 20 mM Tris-HCl, pH 7.4 by three iterative steps of 10-fold dilution and 10-fold concentration using a 10,000 MWCO centrifugal concentrator. The concentration was determined by measuring absorption at 280 nm (ε = 100,000). For the activation of recombinant FXII, 10 μg protein was diluted to a total volume of 10 μl 100 mM NaCl, 20 mM Tris-HCl, pH 7.4 and further diluted with 10 μl of 2-fold concentrated assay buffer (300 mM NaCl, 20 mM MgCl2, 2 mM CaCl2, 20 mM Tris-HCl, 0.02% (v/v) Triton-X100, pH 7.4). Dextran sulfate 500 kDa (DXS500) was added to a final concentration of 0.2 μg μl^−1 and incubated for 1 hour at 37 °C. 5 μg protein was analyzed by SDS-PAGE under reducing conditions.
Protease inhibition assays
The inhibitory activity of peptides was determined by measuring the residual protease activity with a fluorogenic substrate. The assay was performed in buffer containing 10 mM Tris-Cl, pH […]
1% (v/v) DMSO in a volume of 150 µl. FXIIa activity was measured with the fluorogenic substrate Boc-Gln-Gly-Arg-AMC (Bachem) at a final concentration of 50 µM. Mouse α-FXIIa (Molecular Innovations cat # MFXIIA) and human β-FXIIa (Molecular Innovations cat # HFXIIAB) were used at final concentrations of 0.4 nM. The reaction was pipetted as follows: 50 µl of bicyclic peptide in assay buffer were added to 50 µl of FXIIa in assay buffer and incubated for 10 minutes at 25°C before 50 µl of 150 µM fluorogenic substrate in assay buffer were added to measure the residual protease activity with an Infinite M200Pro fluorescence plate reader (excitation at 368 nm, emission at 467 nm; Tecan) for a period of 30 minutes with a read every minute at 25°C. The Tecan software i-control (version 1.1) was used for data analysis. Stock solutions of 1 mM bicyclic peptide were prepared by either dissolving the unpurified cyclization reaction with water or by dissolving purified and lyophilized peptide in water. The bicyclic peptides were serially diluted two-fold using assay buffer. Sigmoidal curves were fitted to the […]

[1] abbreviates: Recombinant human FXII, individual plates, read-out: Residual activity (%).
The mark [2] stands for this setting: read-out: Residual activity (%), Recombinant human FXII, individual plates.

As to `CC(C)C[C@@H]1NC(=O)[C@H](CCC(N)=O)NC(=O)[C@H](CCCNC(=N)N)NC(=O)[C@@H]2CSCCC(=O)N3CN(CN(C3)C(=O)CCSC[C@H](NC(=O)[C@@H](N)CCCNC(=N)N)C(=O)N[C@@H](Cc3ccccc3)C(=O)N[C@@H](CCCNC(=N)N)C(=O)N[C@@H](CC(C)C)C(=O)N3CCC[C@H]3C(=O)N2)C(=O)CCSC[C@@H](C(=O)N[C@@H](CCCNC(=N)N)C(N)=O)NC(=O)[C@H](CCCNC(=N)N)NC1=O` [FXII618], under setting [1], the remaining activity at 0.001 µM was 87.7% and the remaining activity at 0.002 µM was 78.5%. Moreover, under “Recombinant human FXII, peptide 4 nM, individual plates, read-out: Residual activity (%)”, the remaining activity at 0.004 µM was determined as 65.2%. For the same compound, the remaining activity at 0.008 µM (Recombinant human FXII, peptide 8 nM, individual plates, read-out: Residual activity (%)) stood at 47.5%. In addition, the remaining activity at […] (Recombinant human FXII, peptide 16 nM, individual plates, read-out: Residual activity (%)) stood at 30%. The remaining activity at […] (Recombinant human FXII, peptide 32 nM, individual plates, read-out: Residual activity (%)) turned out to be 16.5%. The remaining activity at 0.064 µM (Recombinant human FXII, peptide 64 nM, individual plates, read-out: Residual activity (%)) was found to be 6.9%.

For `CC(C)C[C@@H]1NC(=O)[C@H](CCC(N)=O)NC(=O)[C@H](Cc2c[nH]cn2)NC(=O)[C@@H]2CSCCC(=O)N3CN(CN(C3)C(=O)CCSC[C@H](NC(=O)[C@@H](CO)NC(=O)[C@H](N)CCCNC(=N)N)C(=O)N[C@@H](Cc3ccc(F)cc3)C(=O)N[C@@H](CCCNC(=N)N)C(=O)N[C@@H](CC(C)C)C(=O)N3CCC[C@H]3C(=O)N2)C(=O)CCSC[C@@H](C(N)=O)NC(=O)C[C@H](CCCNC(=N)N)NC1=O` [FXII900] (H-[dR][dS]C[Phe(4-F)]RLPCHQL[β3hR]C-NH2; linker 3-8-13 via TATA), the inhibitory constant (Ki) was determined as 0.51 nM. Moreover, the remaining activity at 62.5 pM (read-out: Residual activity (%), Recombinant human FXII, peptide 0.0625 nM, individual plates) is 93.8%. In addition, the remaining activity at 0.000125 µM (read-out: Residual activity (%), Recombinant human FXII, peptide 0.125 nM, individual plates) amounted to 87.9%. In addition, the remaining activity at 0.0005 µM (read-out: Residual activity (%), Recombinant human FXII, peptide 0.5 nM, individual plates) is 61.1%. Besides, under setting [2], the remaining activity at 0.001 µM amounted to 35.5% and the remaining activity at 0.002 µM was 10.4%.

A word on the Ki: it is the equilibrium dissociation constant of an inhibitor or competing ligand from its target.

For the origin of these results see PMC7403315, “Cyclic peptide FXII inhibitor provides safe anticoagulation in a thrombosis model and in artificial lungs” (Nature Communications, 2020).
